In PubChem BioAssay AID248 (DTP/NCI, 2004):
Toxic doses and inconclusive results are not listed. Rule as the data show it: active = T/C of 150% or more; inactive = T/C below 125%.

Tested on: L1210 leukemia ip in BDF1 mice, survival T/C
Test: NCI In Vivo Anticancer Drug Screen. Data for tumor model L1210 Leukemia (intraperitoneal) in B6D2F1 (BDF1) mice
Details: endpoint: mean survival time, higher = longer survival
Procedure, shortened: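 Antitumor effect is assessed in tumor-bearing animals. Survival in the compound arm is compared with a vehicle-dosed control arm and expressed as their quotient.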

[1] = dose: 100.0 mg/kg/injection, schedule: Q04DX003 (ip), vehicle: saline
[2] = dose: 200.0 mg/kg/injection, schedule: Q04DX003 (ip), vehicle: saline
[3] = dose: 400.0 mg/kg/injection, schedule: Q04DX003 (ip), vehicle: saline
[4] = dose: 100.0 mg/kg/injection, schedule: Q04DX003 (ip), vehicle: Klucel (hydroxypropylcellulose) (HPC)
[5] = dose: 100.0 mg/kg/injection, schedule: Q01DX001 (ip), vehicle: carboxymethylcellulose (CMC)
[6] = dose: 200.0 mg/kg/injection, schedule: Q01DX001 (ip), vehicle: carboxymethylcellulose (CMC)
[7] = dose: 400.0 mg/kg/injection, schedule: Q01DX001 (ip), vehicle: carboxymethylcellulose (CMC)
[8] = dose: 100.0 mg/kg/injection, schedule: Q01DX009 (ip), vehicle: saline with Tween-80
[9] = dose: 200.0 mg/kg/injection, schedule: Q01DX009 (ip), vehicle: saline with Tween-80
[10] = dose: 400.0 mg/kg/injection, schedule: Q01DX009 (ip), vehicle: saline with Tween-80

Measured: T/C

O=C(NCSC1=NCCS1)NCSC1=NCCS1
inactive: dose: 100.0 mg/kg/injection, schedule: Q01DX009 (ip), vehicle: Klucel (hydroxypropylcellulose) (HPC) 107 % of control | [1] 97 % of control | dose: 200.0 mg/kg/injection, schedule: Q01DX009 (ip), vehicle: Klucel (hydroxypropylcellulose) (HPC) 92 % of control | [2] 114 % of control | dose: 400.0 mg/kg/injection, schedule: Q01DX009 (ip), vehicle: Klucel (hydroxypropylcellulose) (HPC) 96 % of control | [3] 97 % of control

CC(=O)OC1C2OC3C=C(C)CCC3(CO)C(C)(C1O)C21CO1 (centres undefined)
inactive: dose: 0.8 mg/kg/injection, schedule: Q01DX009 (ip), vehicle: other 101 % of control | dose: 1.6 mg/kg/injection, schedule: Q01DX009 (ip), vehicle: other 104 % of control | dose: 3.2 mg/kg/injection, schedule: Q01DX009 (ip), vehicle: other 101 % of control | dose: 6.4 mg/kg/injection, schedule: Q01DX009 (ip), vehicle: other 114 % of control | dose: 12.8 mg/kg/injection, schedule: Q01DX009 (ip), vehicle: other 122 % of control | dose: 25.6 mg/kg/injection, schedule: Q01DX009 (ip), vehicle: other 122 % of control

N=C1N=C(N)CS1
inactive: dose: 100.0 mg/kg/injection, schedule: Q01DX001 (ip), vehicle: saline 95 % of control | dose: 200.0 mg/kg/injection, schedule: Q01DX001 (ip), vehicle: saline 104 % of control | dose: 400.0 mg/kg/injection, schedule: Q01DX001 (ip), vehicle: saline 101 % of control

CCNP(=S)(SCC)SCC
inactive: dose: 100.0 mg/kg/injection, schedule: Q04DX002 (ip), vehicle: saline with Tween-80 96 % of control | dose: 200.0 mg/kg/injection, schedule: Q04DX002 (ip), vehicle: saline with Tween-80 89 % of control | dose: 400.0 mg/kg/injection, schedule: Q04DX002 (ip), vehicle: saline with Tween-80 101 % of control

O=C(NCCO)NCCO
inactive: [1] 95 % of control | [2] 98 % of control | [3] 123 % of control

COCC1C2CC(=O)OC2C(I)C1OC(=O)c1ccc(-c2ccccc2)cc1 (centres undefined)
inactive: [4] 100 % of control | dose: 200.0 mg/kg/injection, schedule: Q04DX003 (ip), vehicle: Klucel (hydroxypropylcellulose) (HPC) 104 % of control | dose: 400.0 mg/kg/injection, schedule: Q04DX003 (ip), vehicle: Klucel (hydroxypropylcellulose) (HPC) 91 % of control

CN(C=O)c1ccc(C(=O)O)cc1
inactive: [5] 123 % of control | [6] 96 % of control | [7] 94 % of control

CC(C(c1ccc(Br)cc1)c1ccccc1Cl)[N+](=O)[O-] (centres undefined)
inactive: [1] 95 % of control | [2] 86 % of control | [3] 101 % of control

Cc1ccc(S(=O)(=O)c2ccc(F)cc2)cc1
inactive: dose: 100.0 mg/kg/injection, schedule: Q04DX003 (ip), vehicle: saline with Tween-80 104 % of control | dose: 200.0 mg/kg/injection, schedule: Q04DX003 (ip), vehicle: saline with Tween-80 95 % of control | dose: 400.0 mg/kg/injection, schedule: Q04DX003 (ip), vehicle: saline with Tween-80 97 % of control

Cc1ccc([N+](=O)[O-])cc1NC(=O)C(Cl)(Cl)Cl
inactive: [8] 94 % of control | [9] 98 % of control | [10] 100 % of control

O=C(NCCNC(=O)c1ccncc1)c1ccccc1
inactive: [5] 93 % of control | [6] 104 % of control | [7] 98 % of control

CC(C)N1C(Nc2ccccn2)C(C)(C)C(C)(C)C1Nc1ccccn1 (centres undefined)
inactive: dose: 100.0 mg/kg/injection, schedule: Q04DX002 (ip), vehicle: gum acacia 110 % of control | dose: 200.0 mg/kg/injection, schedule: Q04DX002 (ip), vehicle: gum acacia 120 % of control | dose: 400.0 mg/kg/injection, schedule: Q04DX002 (ip), vehicle: gum acacia 97 % of control

ClC1C2c3ccccc3C(C1Cl)[n+]1ccccc12 (centres undefined)
inactive: dose: 6.25 mg/kg/injection, schedule: Q01DX009 (ip), vehicle: Klucel (hydroxypropylcellulose) (HPC) 109 % of control | dose: 12.5 mg/kg/injection, schedule: Q01DX009 (ip), vehicle: Klucel (hydroxypropylcellulose) (HPC) 98 % of control | dose: 25.0 mg/kg/injection, schedule: Q01DX009 (ip), vehicle: Klucel (hydroxypropylcellulose) (HPC) 94 % of control | dose: 35.0 mg/kg/injection, schedule: Q01DX009 (ip), vehicle: Klucel (hydroxypropylcellulose) (HPC) 95 % of control

CCc1nc(N)nc(N)c1-c1ccc(Cl)cc1.[O]=[Zn]
inactive: dose: 15.0 mg/kg/injection, schedule: Q01DX015 (ip), vehicle: carboxymethylcellulose (CMC) 96 % of control | dose: 30.0 mg/kg/injection, schedule: Q01DX015 (ip), vehicle: carboxymethylcellulose (CMC) 96 % of control | dose: 60.0 mg/kg/injection, schedule: Q01DX015 (ip), vehicle: carboxymethylcellulose (CMC) 123 % of control | [5] 92 % of control | dose: 120.0 mg/kg/injection, schedule: Q01DX015 (ip), vehicle: carboxymethylcellulose (CMC) 124 % of control | [6] 93 % of control

O=C1CCCCC1(O)C[N+](=O)[O-] (centres undefined)
inactive: dose: 75.0 mg/kg/injection, schedule: Q01DX001 (ip), vehicle: carboxymethylcellulose (CMC) 96 % of control

CCC1(Cl)C(=O)OCc2c1cc1n(c2=O)Cc2cc3ccccc3nc2-1 (centres undefined)
inactive: dose: 1.0 mg/kg/injection, schedule: Q01DX001 (ip), vehicle: saline 97 % of control | dose: 1.0 mg/kg/injection, schedule: Q01DX Z (ip), vehicle: saline 100 % of control | dose: 2.0 mg/kg/injection, schedule: Q01DX001 (ip), vehicle: saline 101 % of control | dose: 2.0 mg/kg/injection, schedule: Q01DX Z (ip), vehicle: saline 95 % of control | dose: 4.0 mg/kg/injection, schedule: Q01DX001 (ip), vehicle: saline 100 % of control | dose: 4.0 mg/kg/injection, schedule: Q01DX Z (ip), vehicle: saline 97 % of control | dose: 6.0 mg/kg/injection, schedule: Q01DX001 (ip), vehicle: saline 95 % of control | dose: 6.0 mg/kg/injection, schedule: Q01DX Z (ip), vehicle: saline 103 % of control

O=C(Nc1cccc(F)c1)N(Cc1ccccc1)c1ccccc1
inactive: [8] 91 % of control | [9] 91 % of control | [10] 98 % of control

NC1CC[N-]CC1.NC1CC[N-]CC1.[Cl][Pt+2]([Cl])([Cl])[Cl]
inactive: dose: 12.5 mg/kg/injection, schedule: Q01DX009 (ip), vehicle: saline 101 % of control | dose: 25.0 mg/kg/injection, schedule: Q01DX009 (ip), vehicle: saline 101 % of control | dose: 50.0 mg/kg/injection, schedule: Q01DX009 (ip), vehicle: saline 95 % of control | dose: 50.0 mg/kg/injection, schedule: Q04DX003 (ip), vehicle: saline 106 % of control | dose: 100.0 mg/kg/injection, schedule: Q01DX009 (ip), vehicle: saline 101 % of control | [1] 104 % of control

CCOC(=O)CNc1cccc(F)c1
inactive: dose: 100.0 mg/kg/injection, schedule: Q04DX002 (ip), vehicle: Klucel (hydroxypropylcellulose) (HPC) 101 % of control | dose: 200.0 mg/kg/injection, schedule: Q04DX002 (ip), vehicle: Klucel (hydroxypropylcellulose) (HPC) 108 % of control | dose: 400.0 mg/kg/injection, schedule: Q04DX002 (ip), vehicle: Klucel (hydroxypropylcellulose) (HPC) 105 % of control

CCO/C=C1\SC(=S)N(c2ccccc2OC)C1=O
inactive: [8] 102 % of control | [9] 104 % of control | [10] 106 % of control

CC(=O)Nc1ccccc1C[P+](c1ccccc1)(c1ccccc1)c1ccccc1
inactive: dose: 25.0 mg/kg/injection, schedule: Q04DX003 (ip), vehicle: Klucel (hydroxypropylcellulose) (HPC) 97 % of control | dose: 50.0 mg/kg/injection, schedule: Q04DX003 (ip), vehicle: Klucel (hydroxypropylcellulose) (HPC) 98 % of control | [4] 100 % of control
